Results: article PMC11022737, “Targeting GRP75 with a Chlorpromazine Derivative Inhibits Endometrial Cancer Progression Through GRP75–IP3R‐Ca^2+‐AMPK Axis” (Advanced Science, 2024)
Read-outs that look alike come from different tables or passages of the source.

Tests used:
[1] = test system: endometrial cancer organoid (ECO); experiment: anti-proliferation in endometrial cancer organoid (ECO) model; assay type: cell-based; conditions: Homo sapiens, n = 3, mean ± SD
Method: ECO cultures were established as described previously.^[ [50] ^] Biopsies were cut into small pieces and extensively rinsed in phosphate‐buffered saline (PBS; HyClone, SH30256.01) containing 2% penicillin–streptomycin solution (Thermo Fisher Scientific, 10 010 023). Tissues were incubated in TrypLE (1x; Thermo Fisher Scientific, 12 604 013) supplemented with rock inhibitor for 20 min and then mechanically sheared to obtain a cell suspension. Digestion was stopped by dilution with equal amounts of DMEM/F12 and centrifuged at 1300 rpm for 5 min at 4 °C. The pellet was resuspended in Matrigel (Corning, 356 231, Corning, NY, USA), and 30 µL droplets were deposited in pre‐warmed 24‐well plates. ECOs were cultured as described previously.^[ [51] ^] For passages (performed every 10–20 d), organoids were recovered via liquefaction of the Matrigel drops with ice‐cold DMEM/F12 to ensure maximum organoid collection. Subsequently, ECOs were dissociated by repeated pipetting using TrypLE (in DMEM/F12 containing rock inhibitor), and the mixture was centrifuged at 1300 rpm. […]
EC cells were seeded into 96‐well plates at a concentration of 8 × 10^3 cells well^−1 in a 100 µL volume and cultured overnight. […] Absorbance at 450 nm was measured using a microplate reader (BioTek Synergy H1, Agilent Technologies, Santa Clara, CA, USA).

[2] = plasma protein binding using equilibrium dialysis; assay type: in vitro ADME
Excerpt: Plasma protein binding using equilibrium dialysis: A 96-well equilibrium dialysis device and HTD 96 a/b regenerated cellulose membrane strips with a molecular mass cutoff of 12–14 kDa were obtained from HTDialysis LLC (Gales Ferry, CT). The dialysis device was assembled following the manufacturer's instructions.

EC cells (ISK) = experiment: MAM integrity and mitochondrial Ca2+ (TEM, confocal imaging) in EC cells; assay type: cell-based, human
Method: EC cells were fixed with 2.5% glutaraldehyde in sodium cacodylate buffer (0.1 mol L^−1, pH 7.2) at 4 °C overnight and post‐fixed for 1 h in 1% osmium tetroxide. Samples were stained for 1 h with 1% uranyl acetate in water before dehydration and embedding in the TAAB resin. Images were obtained using a transmission electron microscope.
Co‐localization analysis of the ER and mitochondria was conducted as previously described.^[ [64], [65] ^] EC cells grown on glass slides were loaded with Mito‐Tracker Red (0.3 µmol L^−1) and ER‐Tracker Green (1 µmol L^−1) at 37 °C for 30 min. Images were captured using a confocal microscope equipped with a 100× oil immersion objective (excitation at 488 and 594 nm, emission at 505–530 and >560 nm, respectively). Co‐localization of the ER and mitochondria was quantified as Manders’ co‐localization coefficient (MCC) using ImageJ software with a JACoP plugin. MCCs were calculated according to the fraction of mitochondrial pixels in contact with the ER (with a higher value representing more co‐localization). The co‐localization of Rhod‐2 (red fluorescent signal, 4 µmol L^−1) with Mito‐Tracker Green (0.3 µmol L^−1) in the live cells was performed as described above.

[3] = pharmacokinetic assay in SD rats (PO, IP, IV); assay type: in vivo; conditions: male, rat, plasma
Method: Three male SD rats (208–259 g, 6–8 weeks) per group were purchased from JH Laboratory Animal Co. LTD. All rats were raised under controlled temperature and humidity conditions and had free access to food and water. […] Each rat was injected with a combination solution at doses of 2, 10, and 5 mg kg^−1 for IV, PO, and IP, respectively. Blood samples collected in anticoagulant (K2EDTA)‐containing tubes at 0.25, 0.5, 1, 2, 4, 8, and 24 h after injection were centrifuged at 2000 × g at 4 °C for 5 min to obtain plasma. LC‐MS/MS analysis of samples was carried out using an ACQUITY UPLC HSS T3 1.8 µm column. The mobile phase was a mixture of phase A (0.1% formic acid in water) and phase B (0.1% formic acid in acetonitrile), which ran in gradient mode at a flow rate of 0.6 mL min^−1 at 60 °C. Mass spectra were obtained on an API6500 triple quadrupole equipped with an ESI source. Glipizide was used as an internal standard. The plasma concentrations of the compounds were analyzed, and the pharmacokinetic parameters were calculated via WinNonlin.

[4] = test system: AMPK signaling in ISK and KLE cells; experiment: Western blotting of p-AMPK and BIM; assay type: cell-based, human
Excerpt: EC cells were lysed in RIPA buffer (Epizyme, PC102, Ipsen Biopharmaceuticals, Cambridge, MA, USA) supplemented with a protease inhibitor cocktail. Samples were then quantified using a BCA kit (Epizyme, ZJ101), resolved by SDS‐PAGE, and blotted with primary antibodies and corresponding horseradish peroxidase‐conjugated secondary antibodies. The primary antibodies used included anti‐AMPK (1:1000 dilution), anti‐p‐AMPK (1:1000 dilution), anti‐BIM (1:1000 dilution), and anti‐GRP75 (1:1000 dilution) from Cell Signaling Technology (Beverly, MA, USA) and anti‐GAPDH (1:1500 dilution) from Yeason.

ISK and KLE cells [5] = experiment: ATP production and α-KGDH activity in EC cells; assay type: cell-based, human; conditions: 10 µmol L−1
Method: The intracellular ATP levels were then checked using an enhanced ATP kit (Beyotime Biotechnology, Jiangsu, China), in accordance with the manufacturer's instructions. The entire cell population, including any floating cells, was collected, lysed, and boiled to release the ATP for the assay, and the results were compared with those from the DMSO group (%).
Intracellular α‐KGDH activity levels were measured using an α‐KGDH activity assay kit (Solarbio, Beijing, China) according to the manufacturer's instructions. Briefly, the entire cell population, including any floating cells, was collected, milled, and the absorbance measured. The α‐KGDH activity was then determined using Equation 2 as follows: (2) α−KGDH=U/10^4cell=4.962×ΔAdetermination−ΔAblank

[6] = design: method as in PMID 35868106; conditions: cited from earlier work
ISK and KLE cells [7] = experiment: Seahorse glycolytic rate assay (ECAR); assay type: cell-based, human; conditions: 10 µM
Method: The ECAR and OCR were measured using the Seahorse XF Glycolysis Stress Test Kit or Seahorse XF Cell Mito Stress Test Kit on the Seahorse XF 96 Extracellular Flux Analyzer (Seahorse Bioscience, North Billerica, MA, USA), according to the manufacturer's introductions. […] Glucose, oligomycin, and 2‐deoxy‐glucose were used to determine the ECAR values, whereas oligomycin, carbonyl cyanide‐p‐trifluoromethoxyphenylhydrazone, and rotenone were used to measure the OCR.

[8] = test system: ISK cells xenograft tumors; experiment: ISK tumor xenograft in nude mice; assay type: in vivo, BALB/c nude mice
Excerpt: All animal experiments were approved by the Committee on the Ethics of Animal Experiments of Shanghai Jiao Tong University, China (GKLW 2018–40). Female BALB/c nude mice (at least 5 weeks old) were procured from a commercial supplier (JieSiJie, Shanghai, China) through the Department of Laboratory Animal Science at Shanghai Jiaotong University School of Medicine. Mice were maintained under standard conditions and cared for according to the institutional guidelines for animal care. EC cells resuspended in PBS were mixed with Matrigel (BD Biosciences) in equal volume and then subcutaneously injected into the armpits of the nude mice. […] The dose of the compound injected into the mice was slightly adjusted following the methodology described in the previous study.^[ [7] ^] Every 2 d, the length (L) and width (W) of each tumor were measured twice using an external Vernier caliper for automatic reading, where the larger of the two measurements was defined as L and the smaller as W. The tumor volume was calculated using Equation 1, as follows: (1) V=0.52×L×W^2
HSP‐70 ELISA kits were purchased from YuBo Biology. […] Equal amounts of diluted protein supernatant were used, and the assay was conducted according to the manufacturer's instructions. The obtained absorbance values for protein levels were then transferred to in‐house data analysis software developed using the Windows Microsoft Excel platform to calculate the standard deviations for each group, and the average absorbance for each group was compared to the standardized controls. Each test group for each of the proteins of interest consisted of eight replicates. Assay‐specific controls were run with each plate to ensure optimal accuracy of the results.

GRP75 = molecular target: T1, GRP75 (Homo sapiens, UniProt P38646); experiment: microscale thermophoresis (MST) binding assay; conditions: His-tagged recombinant GRP75 50 nmol L−1, n = 3; read-out: K d, binding to GRP75 (MST)
T1 construct: purchased Zoonbio Biotechnology Co., Ltd. (Nanjing, China); host or cells: E. coli
Method: Purified GRP75 protein was obtained by Zoonbio Biotechnology Co., Ltd. (Nanjing, China). Recombinant His‐tagged GRP75 protein was labeled with RED‐tris‐NTA second generation dye solution (MO‐L018, NanoTemper Technologies), according to the manufacturer's instructions. […] All samples were diluted in 1× PBST and contained the same amount of DMSO. The K d was determined in MO. Control using the K d fit.

water solubility = assay type: physicochemical
[9] = IP 5 mg kg−1, read-out: AUC 0–24 h
[10] = IP 5 mg kg−1, read-out: AUC 24 h−∞
[11] = IV 2 mg kg−1, read-out: AUC 0–24 h
[12] = IV 2 mg kg−1, read-out: AUC 24 h−∞
[13] = PO 10 mg kg−1, read-out: AUC 0–24 h
[14] = PO 10 mg kg−1, read-out: F (oral bioavailability)

T1 sequence (P38646 47-679): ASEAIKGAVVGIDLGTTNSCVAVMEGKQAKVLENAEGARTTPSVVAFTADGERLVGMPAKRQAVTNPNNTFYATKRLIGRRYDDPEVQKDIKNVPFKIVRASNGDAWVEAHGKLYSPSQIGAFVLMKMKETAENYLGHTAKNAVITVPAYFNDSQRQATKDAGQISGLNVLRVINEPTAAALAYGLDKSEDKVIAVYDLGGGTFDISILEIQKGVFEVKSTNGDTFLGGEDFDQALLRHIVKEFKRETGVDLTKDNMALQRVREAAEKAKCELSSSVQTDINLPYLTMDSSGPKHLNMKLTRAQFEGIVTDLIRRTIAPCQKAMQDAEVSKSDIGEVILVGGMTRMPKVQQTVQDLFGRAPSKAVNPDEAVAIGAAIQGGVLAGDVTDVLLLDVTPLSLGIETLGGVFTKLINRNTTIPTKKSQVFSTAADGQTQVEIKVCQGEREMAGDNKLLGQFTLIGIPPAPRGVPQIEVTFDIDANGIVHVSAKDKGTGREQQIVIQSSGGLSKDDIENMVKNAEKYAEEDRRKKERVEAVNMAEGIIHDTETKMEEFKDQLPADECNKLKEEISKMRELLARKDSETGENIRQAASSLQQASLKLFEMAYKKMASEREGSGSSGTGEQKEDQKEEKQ

| Structure (SMILES) | IC50 [1] [µM] | Cmax ([3]; IP 5 mg kg−1) [ng/mL] | Tmax ([3]; IP 5 mg kg−1) [h] | half-life ([3]; IP 5 mg kg−1) [h] | AUC(0-t) [3, 9] [ng·h/mL] | AUC(0-inf) [3, 10] [ng·h/mL] | bioavailability ([3]; IP 5 mg kg−1, read-out: F) [%] | clearance ([3]; IV 2 mg kg−1) [mL/min/kg] | half-life ([3]; IV 2 mg kg−1) [h] | AUC(0-t) [3, 11] [ng·h/mL] | AUC(0-inf) [3, 12] [ng·h/mL] | Cmax ([3]; PO 10 mg kg−1) [ng/mL] | Tmax ([3]; PO 10 mg kg−1) [h] | AUC(0-t) [3, 13] [ng·h/mL] | bioavailability [3, 14] [%] | extrapyramidal side effects [6] | further results |
| --- | --- | --- | --- | --- | --- | --- | --- | --- | --- | --- | --- | --- | --- | --- | --- | --- | --- |
| CN(C)CCCN1c2ccccc2Sc2ccc(Cl)cc21 [CPZ, chlorpromazine] | 58.2 ± 7.62 | – | – | – | – | – | – | – | – | – | – | – | – | – | – | – | % Bound (plasma protein binding rate) [2]: 98.44%; fraction unbound [2]: 0.0156 |
| CN1CCN(CCCCCN2c3cc(Cl)ccc3Sc3cccnc32)CC1 [JX57] | – | 3.04 ± 1.12 | 0.33 ± 0.14 | 3.06 ± 1.03 | 9.01 ± 7.03 | 14.2 ± 8.39 | 44.4 ± 34.6 | 2650 | 2.72 ± 0.9 | 8.12 ± 4.13 | 13.9 ± 5.43 | 11.3 ± 4.57 | 0.41 ± 0.14 | 41.5 ± 15.7 | 94.3 ± 46.9 | minor | ER–mitochondrial distance (TEM) (EC cells (ISK); EC cells (ISK), 10 µmol L−1): significantly expanded; [Ca2+]m levels (EC cells (ISK); EC cells, 10 µmol L−1, confocal Rhod-2/Mito-Tracker): decreased; half-life ([3]; PO 10 mg kg−1): 4.03 ± 0.88 h; AUC(0-inf) ([3]; PO 10 mg kg−1, read-out: AUC 24 h−∞): 55.7 ± 24.3 ng·h/mL; p‐AMPK expression and BIM expression [4]: increased; cellular ATP levels (ISK and KLE cells [5]): reduced; α‐ketoglutarate activity (ISK and KLE cells [5]): reduced; %Unbound [2]: 0.84%; glycolysis rate and glycolytic capacity (ECAR) (ISK and KLE cells [7]): markedly reduced; expression of GRP75 in xenograft tumors with ISK cells (ELISA) ([8]; 5 mg kg−1, n = 8): reduced; effects on GRP75-knockdown ISK tumor versus vehicle group ([8]; GRP75-deficient ISK cells in nude mice, 5 mg kg−1 i.p. daily, n = 6): not significantly different; anticancer effect in vivo on addition of the AMPK inhibitor compound C ([8]; JX57 5 mg kg−1 plus compound C 0.2 mg kg−1, n = 6): partially abolished |
| Clc1ccc2c(c1)N(CCCCCN1CCC3(CCCCC3)CC1)c1ncccc1S2 [JX66] | 6.39 ± 0.87 | 10 ± 1.49 | 1.67 ± 0.57 | 10.1 ± 1.38 | 140 ± 35.3 | 170 ± 37.4 | 42.5 ± 13 | 265 | 5.1 ± 1.69 | 144 ± 75.9 | 153 ± 75.9 | 3.8 ± 1.29 | 5.5 ± 4.33 | 16 ± 2.65 | 2.23 ± 0.37 | minor | Kd (GRP75): 37.6 µM; water solubility (water solubility): poor |
